From the NIST ThermoML archive (doi:10.1021/je1002829)

Test: xn = mol fraction of the nth substance listed
Conditions: for mass density: 101 kPa, Liquid, Pycnometric method

CCC(=O)O [propanoic acid] + O
Conditions	mass density, 293.15 K [kg/m3]	mass density, 298.15 K [kg/m3]	mass density, 303.15 K [kg/m3]	mass density, 308.15 K [kg/m3]	surface tension liquid-gas, 293.15 K [mN/m]	surface tension liquid-gas, 298.15 K [mN/m]	surface tension liquid-gas, 303.15 K [mN/m]	surface tension liquid-gas, 308.15 K [mN/m]
x1 = 0.00861	–	–	–	–	53.75	52.45	52.18	51.48
x1 = 0.01457	1000.94	999.46	997.79	996.38	49.8	49.01	48.47	47.97
x1 = 0.02075	–	–	–	–	46.86	46.29	45.79	45.31
x1 = 0.03268	1004.5	1002.95	1001.28	998.86	42.79	42.3	41.69	41.23
x1 = 0.0455	–	–	–	–	39.75	39.16	38.43	37.89
x1 = 0.05436	1008.59	1006.51	1004.63	1002.08	38.2	37.55	36.83	36.18
x1 = 0.06602	–	–	–	–	36.71	36.04	35.36	34.61
x1 = 0.0747	–	–	–	–	35.93	35.28	34.6	33.85
x1 = 0.0869	1014.63	1011.95	1009.33	1006.91	35.19	34.59	33.85	33.19
x1 = 0.1019	1017.46	1014.23	1011.41	1008.86	–	–	–	–
x1 = 0.1095	–	–	–	–	34.48	33.94	33.04	32.62
x1 = 0.128	1020.75	1017.92	1014.77	1011.7	34.1	33.59	32.68	32.35
x1 = 0.1494	–	–	–	–	33.68	33.18	32.43	32
x1 = 0.171	1025.1	1021.28	1017.58	1013.89	33.22	32.71	32.27	31.51
x1 = 0.1823	–	–	–	–	32.96	32.45	32.21	31.21
x1 = 0.1947	1025.78	1022.21	1018.26	1014.09	–	–	–	–
x1 = 0.2318	1026.54	1022.48	1018.39	1014.03	–	–	–	–
x1 = 0.2485	1026.51	1022.21	1018.12	1013.78	–	–	–	–
x1 = 0.2755	1026.19	1021.74	1017.72	1013.1	–	–	–	–
x1 = 0.3043	1025.42	1021.28	1017.05	1012.52	–	–	–	–
x1 = 0.333	1024.97	1020.74	1016.65	1011.57	–	–	–	–
x1 = 0.3701	1024.09	1019.95	1015.5	1010.29	–	–	–	–
x1 = 0.4001	1023.22	1018.88	1014.2	1009.37	–	–	–	–
